The experiment relates to Mycobacterium tuberculosis H37Rv. The experiment in a line: Resazurin Microplate Assay (REMA), anti-tubercular activity, H37Rv strain. The following applies: 192 h, read-out: Anti-tubercular activity against Mycobacterium tuberculosis (MIC), H37Rv. Format: cell-based. On the technique in general: Alamar Blue is a resazurin reagent that responds to reducing activity.

Structures are written as SMILES.

In general, MIC refers to the lowest concentration found to suppress growth.

On to `N#Cc1ccc(C(=O)C[n+]2ccc(C#N)cc2)cc1.[Br-]` [Compound 3f, 4-Cyano-1-(2-(4-cyanophenyl)-2-oxoethyl)pyridin-1-ium bromide], for which the MIC was found to be 1 µg/mL.

For the origin of these results see patent US12202801B1 (priority 2023, dated 2025).
